Test results taken from ChEMBL document CHEMBL5584246, “Novel dihydropyrimidines as promising EGFR & HER2 inhibitors: Insights from experimental and computational studies” (Eur J Med Chem, 2024).

Columns and labels:
MCF7 = test: Cytotoxicity against human MCF7 cells assessed as inhibition of cell growth measured after 3 days by MTT assay; assay type: functional, cell-based; details: MCF7, 72 h
[1] = Cytotoxicity against African green monkey Vero cells assessed as inhibition of cell growth measured after 3 days by MTT assay; assay type: toxicity, cell-based; details: African green monkey (Chlorocebus sabaeus)
[2] = Inhibition of EGFR expression in human MCF7 cells assessed as negative expression region (M1) at 25 nM incubated for 24 hrs by flow cytometry analysis (reference value: 0.66%); assay type: functional
[3] = Inhibition of EGFR expression in human MCF7 cells assessed as negative expression region (M1) at 50 nM incubated for 24 hrs by flow cytometry analysis (reference value: 0.66%); assay type: functional
[4] = Inhibition of EGFR expression in human MCF7 cells assessed as negative expression region (M1) at 100 nM incubated for 24 hrs by flow cytometry analysis (reference value: 0.66%); assay type: functional
[5] = Inhibition of EGFR expression in human MCF7 cells assessed as negative expression region (M1) at 500 nM incubated for 24 hrs by flow cytometry analysis (reference value: 0.66%); assay type: functional
[6] = Inhibition of EGFR expression in human MCF7 cells assessed as negative expression region (M1) at 1000 nM incubated for 24 hrs by flow cytometry analysis (reference value: 0.66%); assay type: functional
[7] = Inhibition of EGFR expression in human MCF7 cells assessed as positive expression region (M2) at 25 nM incubated for 24 hrs by flow cytometry analysis (reference value: 99.36%); assay type: functional
[8] = Inhibition of EGFR expression in human MCF7 cells assessed as positive expression region (M2) at 50 nM incubated for 24 hrs by flow cytometry analysis (reference value: 99.36%); assay type: functional
[9] = Inhibition of EGFR expression in human MCF7 cells assessed as positive expression region (M2) at 100 nM incubated for 24 hrs by flow cytometry analysis (reference value: 99.36%); assay type: functional
[10] = Inhibition of EGFR expression in human MCF7 cells assessed as positive expression region (M2) at 500 nM incubated for 24 hrs by flow cytometry analysis (reference value: 99.36%); assay type: functional
[11] = Inhibition of EGFR expression in human MCF7 cells assessed as positive expression region (M2) at 1000 nM incubated for 24 hrs by flow cytometry analysis (reference value: 99.36%); assay type: functional
[12] = Inhibition of HER2 expression in human MCF7 cells assessed as negative expression region (M1) at 25 nM incubated for 24 hrs by flow cytometry analysis (reference value: 0.98%); assay type: functional
[13] = Inhibition of HER2 expression in human MCF7 cells assessed as negative expression region (M1) at 50 nM incubated for 24 hrs by flow cytometry analysis (reference value: 0.98%); assay type: functional
[14] = Inhibition of HER2 expression in human MCF7 cells assessed as negative expression region (M1) at 100 nM incubated for 24 hrs by flow cytometry analysis (reference value: 0.98%); assay type: functional
[15] = Inhibition of HER2 expression in human MCF7 cells assessed as negative expression region (M1) at 500 nM incubated for 24 hrs by flow cytometry analysis (reference value: 0.98%); assay type: functional
[16] = Inhibition of HER2 expression in human MCF7 cells assessed as negative expression region (M1) at 1000 nM incubated for 24 hrs by flow cytometry analysis (reference value: 0.98%); assay type: functional
[17] = Inhibition of HER2 expression in human MCF7 cells assessed as positive expression region (M2) at 25 nM incubated for 24 hrs by flow cytometry analysis (reference value: 99.09%); assay type: functional
[18] = Inhibition of HER2 expression in human MCF7 cells assessed as positive expression region (M2) at 50 nM incubated for 24 hrs by flow cytometry analysis (reference value: 99.09%); assay type: functional
[19] = Inhibition of HER2 expression in human MCF7 cells assessed as positive expression region (M2) at 100 nM incubated for 24 hrs by flow cytometry analysis (reference value: 99.09%); assay type: functional
[20] = Inhibition of HER2 expression in human MCF7 cells assessed as positive expression region (M2) at 500 nM incubated for 24 hrs by flow cytometry analysis (reference value: 99.09%); assay type: functional
[21] = Inhibition of HER2 expression in human MCF7 cells assessed as positive expression region (M2) at 1000 nM incubated for 24 hrs by flow cytometry analysis (reference value: 99.09%); assay type: functional
[22] = molecular target: Epidermal growth factor receptor (Homo sapiens, UniProt P00533); test: Inhibition of wild type EGFR (unknown origin) incubated for 40 mins in presence of ATP by kinase glo max assay
Epidermal growth factor receptor, sequence (P00533 whole entry): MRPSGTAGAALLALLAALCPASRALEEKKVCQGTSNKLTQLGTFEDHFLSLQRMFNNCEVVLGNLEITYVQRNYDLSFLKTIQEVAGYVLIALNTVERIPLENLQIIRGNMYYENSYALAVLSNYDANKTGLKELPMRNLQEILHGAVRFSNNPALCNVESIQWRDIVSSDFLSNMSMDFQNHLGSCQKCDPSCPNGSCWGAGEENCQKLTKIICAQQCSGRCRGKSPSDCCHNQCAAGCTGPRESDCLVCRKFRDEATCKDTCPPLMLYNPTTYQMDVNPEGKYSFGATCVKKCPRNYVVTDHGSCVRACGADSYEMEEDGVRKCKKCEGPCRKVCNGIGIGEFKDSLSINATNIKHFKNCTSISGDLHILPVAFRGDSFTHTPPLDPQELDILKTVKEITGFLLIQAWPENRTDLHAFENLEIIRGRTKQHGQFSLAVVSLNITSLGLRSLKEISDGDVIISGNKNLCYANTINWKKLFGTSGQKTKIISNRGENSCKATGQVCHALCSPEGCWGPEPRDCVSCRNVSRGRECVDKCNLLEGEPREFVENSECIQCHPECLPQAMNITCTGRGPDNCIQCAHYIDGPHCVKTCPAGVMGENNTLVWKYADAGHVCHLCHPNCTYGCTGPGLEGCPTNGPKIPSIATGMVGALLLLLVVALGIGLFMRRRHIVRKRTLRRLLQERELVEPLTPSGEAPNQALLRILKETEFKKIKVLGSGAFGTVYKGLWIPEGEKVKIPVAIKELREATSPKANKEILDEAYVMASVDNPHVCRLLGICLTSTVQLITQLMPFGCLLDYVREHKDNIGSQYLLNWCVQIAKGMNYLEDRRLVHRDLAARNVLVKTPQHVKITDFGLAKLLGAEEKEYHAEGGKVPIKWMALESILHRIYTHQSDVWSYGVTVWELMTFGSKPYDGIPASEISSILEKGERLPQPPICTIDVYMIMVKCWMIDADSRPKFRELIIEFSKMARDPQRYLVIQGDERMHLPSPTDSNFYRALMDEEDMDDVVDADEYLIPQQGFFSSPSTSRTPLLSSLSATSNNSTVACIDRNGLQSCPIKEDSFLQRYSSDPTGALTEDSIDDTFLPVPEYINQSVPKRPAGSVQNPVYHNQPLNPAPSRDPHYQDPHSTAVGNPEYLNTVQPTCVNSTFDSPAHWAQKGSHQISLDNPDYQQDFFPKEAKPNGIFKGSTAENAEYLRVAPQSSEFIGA

Compound `COc1ccc(NC(=O)C2=C(C)NC(=S)NC2c2ccccc2O)c(OC)c1` (centres undefined) has an IC50 (MCF7) of 32.1 µM and an IC50 at 3 days [1] of 60.4 µM.

With `COc1ccc(NC(=O)C2=C(C)NC(=O)NC2c2cccc(Cl)c2)c(OC)c1` (centres undefined) the IC50 (MCF7) was 38.2 µM and the IC50 at 3 days [1] was 73.4 µM.

Work on `COc1ccc(NC(=O)C2=C(C)NC(=O)NC2c2ccc(C)cc2)c(OC)c1` (centres undefined) yielded an IC50 (MCF7) of 33.5 µM and an IC50 at 3 days [1] of 60 µM.

`COc1ccc(NC(=O)C2=C(C)NC(=S)NC2c2ccc(OCc3ccccc3)c(OC)c2)c(OC)c1` (centres undefined) gave an IC50 (MCF7) of 17 µM, an IC50 at 3 days [1] of 52.9 µM and an inhibition at 0.025 µM [2] of 32.1%. It also gave an inhibition at 0.05 µM [3] of 62.4%, an inhibition at 0.1 µM [4] of 80.5% and an inhibition at 0.5 µM [5] of 83.2%. The inhibition at 1 µM [6] was 96%, the inhibition at 0.025 µM [7] was 68.7% and the inhibition at 0.05 µM [8] was 38.4%. The inhibition at 0.1 µM [9] was 20.1%, the inhibition at 0.5 µM [10] was 17.4% and the inhibition at 1 µM [11] was 4.17%. The inhibition at 0.025 µM [12] was 14.9%, the inhibition at 0.05 µM [13] was 42.6% and the inhibition at 0.1 µM [14] was 72.1%. For the same compound, the inhibition at 0.5 µM [15] was 78.4%, the inhibition at 1 µM [16] was 92.7% and the inhibition at 0.025 µM [17] was 85.5%. It also gave an inhibition at 0.05 µM [18] of 57.8%, an inhibition at 0.1 µM [19] of 28.3% and an inhibition at 0.5 µM [20] of 22.3%. The inhibition at 1 µM [21] was 7.42% and the IC50 [22] was 0.0768 µM.

Compound `COc1ccc(NC(=O)C2=C(C)NC(=O)NC2)c(OC)c1` has an IC50 (MCF7) of 81.5 µM and an IC50 at 3 days [1] of 87.2 µM.

`COc1ccc(NC(=O)C2=C(C)NC(=O)NC2c2cccc(O)c2)c(OC)c1` (centres undefined) gave an IC50 (MCF7) of 30.4 µM and an IC50 at 3 days [1] of 55.7 µM.

For `COc1ccc(NC(=O)C2=C(C)NC(=O)NC2/C=C\c2ccccc2)c(OC)c1` (centres undefined), the IC50 (MCF7) was 19.3 µM and the IC50 at 3 days [1] was 30.4 µM.

Work on `COc1ccc(NC(=O)C2=C(C)NC(=O)NC2c2ccc(OCc3ccccc3)c(OC)c2)c(OC)c1` (centres undefined) yielded an IC50 (MCF7) of 9.38 µM, an IC50 at 3 days [1] of 18.4 µM and an inhibition at 0.025 µM [2] of 37.6%. For the same compound, the inhibition at 0.05 µM [3] was 66.7%, the inhibition at 0.1 µM [4] was 84.3% and the inhibition at 0.5 µM [5] was 91.1%. The inhibition at 1 µM [6] was 98.6%, the inhibition at 0.025 µM [7] was 63.2% and the inhibition at 0.05 µM [8] was 33.8%. It also gave an inhibition at 0.1 µM [9] of 16.1%, an inhibition at 0.5 µM [10] of 9.15% and an inhibition at 1 µM [11] of 1.49%. It also gave an inhibition at 0.025 µM [12] of 57.5%, an inhibition at 0.05 µM [13] of 77.9% and an inhibition at 0.1 µM [14] of 88.7%. It also gave an inhibition at 0.5 µM [15] of 95%, an inhibition at 1 µM [16] of 96.9% and an inhibition at 0.025 µM [17] of 43%. It also gave an inhibition at 0.05 µM [18] of 22.4%, an inhibition at 0.1 µM [19] of 11.6% and an inhibition at 0.5 µM [20] of 5.16%. For the same compound, the inhibition at 1 µM [21] was 3.21%.

`CS(=O)(=O)CCNCc1ccc(-c2ccc3ncnc(Nc4ccc(OCc5cccc(F)c5)c(Cl)c4)c3c2)o1` [LAPATINIB] showed an IC50 (MCF7) of 3.38 µM, an IC50 at 3 days [1] of 19.3 µM and an inhibition at 0.1 µM [4] of 94.3%. The inhibition at 0.1 µM [9] was 5.88%, the inhibition at 0.1 µM [14] was 93% and the inhibition at 0.1 µM [19] was 7.15%.

Compound `COc1ccc(NC(=O)C2=C(C)NC(=O)NC2c2ccc(Cl)cc2Cl)c(OC)c1` (centres undefined) has an IC50 (MCF7) of 32.4 µM and an IC50 at 3 days [1] of 63.5 µM.

Compound `COc1ccc(NC(=O)C2=C(C)NC(=O)NC2c2ccco2)c(OC)c1` (centres undefined) has an IC50 (MCF7) of 27.4 µM and an IC50 at 3 days [1] of 62.4 µM.

With `COc1ccc(NC(=O)C2=C(C)NC(=S)NC2c2cccc(O)c2)c(OC)c1` (centres undefined) the IC50 (MCF7) was 34.8 µM and the IC50 at 3 days [1] was 69.2 µM.

In the case of `COc1ccc(NC(=O)C2=C(C)NC(=O)NC2c2ccc(O)c(OC)c2)c(OC)c1` (centres undefined), the IC50 (MCF7) is reported as 16.1 µM and the IC50 at 3 days [1] is reported as 42.9 µM.

With `COc1ccc(NC(=O)C2=C(C)NC(=S)NC2c2ccc(Br)cc2)c(OC)c1` (centres undefined) the IC50 (MCF7) was 37.5 µM and the IC50 at 3 days [1] was 61.2 µM.

With `COc1ccc(NC(=O)C2=C(C)NC(=S)NC2c2ccc(C)cc2)c(OC)c1` (centres undefined) the IC50 (MCF7) was 38.2 µM and the IC50 at 3 days [1] was 53.6 µM.

With `COc1ccc(NC(=O)C2=C(C)NC(=O)NC2c2c[nH]c3ccccc23)c(OC)c1` (centres undefined) the IC50 (MCF7) was 20.2 µM and the IC50 at 3 days [1] was 42.6 µM.

`COc1ccc(NC(=O)C2=C(C)NC(=S)NC2c2ccc(O)c(OC)c2)c(OC)c1` (centres undefined) showed an IC50 (MCF7) of 20.3 µM and an IC50 at 3 days [1] of 42.5 µM.

`CCOc1cc(C2NC(=S)NC(C)=C2C(=O)Nc2ccc(OC)cc2OC)ccc1O` (centres undefined) gave an IC50 (MCF7) of 25.3 µM and an IC50 at 3 days [1] of 57.4 µM.

Compound `COc1ccc(NC(=O)C2=C(C)NC(=O)NC2c2ccc(OC)c(OC)c2)c(OC)c1` (centres undefined) has an IC50 (MCF7) of 14.2 µM, an IC50 at 3 days [1] of 30.1 µM and an inhibition at 0.025 µM [2] of 18.1%. The inhibition at 0.05 µM [3] was 40.2%, the inhibition at 0.1 µM [4] was 68.3% and the inhibition at 0.5 µM [5] was 94.4%. It also gave an inhibition at 1 µM [6] of 96.7%, an inhibition at 0.025 µM [7] of 82.2% and an inhibition at 0.05 µM [8] of 60%. The inhibition at 0.1 µM [9] was 32.5%, the inhibition at 0.5 µM [10] was 5.73% and the inhibition at 1 µM [11] was 3.42%. The inhibition at 0.025 µM [12] was 32.7%, the inhibition at 0.05 µM [13] was 63.8% and the inhibition at 0.1 µM [14] was 79.3%. The inhibition at 0.5 µM [15] was 89.9%, the inhibition at 1 µM [16] was 93.4% and the inhibition at 0.025 µM [17] was 67.9%. The inhibition at 0.05 µM [18] was 36.8%, the inhibition at 0.1 µM [19] was 21% and the inhibition at 0.5 µM [20] was 10.3%. For the same compound, the inhibition at 1 µM [21] was 6.78% and the IC50 [22] was 0.0698 µM.
